In PMC8345035, “Targeted Alpha-Particle Radiotherapy and Immune Checkpoint Inhibitors Induces Cooperative Inhibition on Tumor Growth of Malignant Melanoma” (Cancers, 2021) one finds tissue uptake and complete response rate data, which are given here for 3 compounds.

Series [1] in a line: In vivo biodistribution of [^203Pb]VMT01 in B16-F10 melanoma xenograft model. The note with it: athymic nude, mouse, intravenous, 74 KBq, total radioactivity, tail vein; for tissue uptake at 0.5 h: 0.5 h post-injection; for tissue uptake at 1.5 h: 1.5 h post-injection; for tissue uptake at 3 h: 3 h post-injection; for tissue uptake at 6 h: 6 h post-injection; for tissue uptake at 24 h: 24 h post-injection. On the set-up: species or system athymic nude mice. The method, then: Radiolabeling of VMT01 was carried out according to published methods. Briefly, ^203Pb^2+ was purified on 50 mg Pb-resin (Eichrom Technologies, Lisle, IL, USA) and eluted into reaction vessel using 0.5 M sodium acetate (NaOAc) pH = 6 buffer. The reaction vessel contained 20 nmole VMT01 peptide precursor and 0.29 mL of 0.5 M sodium acetate (NaOAc) pH = 4 buffer to adjust final pH to 5.4. The reaction solution was heated under 85 °C for 30 min. After reactions, free ^203Pb was removed by StrataX C-18 SPE cartridge (Phenomenex, Torrance, CA, USA) and final products were collected in 50% EtOH in saline. Biodistribution of [^203Pb]VMT01 was determined in a B16-F10 murine melanoma xenograft model in athymic nude mice. B16-F10 xenograft was developed by the subcutaneous (SC) injection of 2 × 10^5 B16-F10 cells at the left shoulder in 100 µL 50% Matrigel in complete growth media. Then, 74 KBq of [^203Pb]VMT01 (5.4 pmole) were administered via tail vein injection (2 male and 2 female at each time point) in 100 µL of saline with less than 10% EtOH content. At 0.5, 1.5, 3, 6, and 24 h post-injection, animals were euthanized, and organs of interest were harvested and weighed. Radioactivity in tumor and organs was measured on a Cobra II automated gamma counter. […] The value for 48 h was extrapolated from the last 3 time points (3, 6, and 24 h) of the biodistribution by one phase exponential decay with least squares fitting method (GraphyPrism V7). The average kidney volume was assumed to be 0.33 cm^3 for C57BL6 mice. […] The voxel size of the model was adjusted to have the same kidney volume as the averaged value (0.33 cm^3). The elemental composition of the kidney and the mass density was assumed to be identical as the human adults’ values obtained from the International Commission on Radiation Units and measurements (ICRU) report 46 [52].

The next series relates to metastatic melanoma. On the set-up: method as in PMID 31562797. The note with it: patients with metastatic melanoma; ref [13]; cited from earlier work.
The mark [2] stands for this setting: both sexes, blood, read-out: Biodistribution, Blood, Average.
Setting [3] is: both sexes, brain, read-out: Biodistribution, Brain, Average.
Setting [4] is: both sexes, heart, read-out: Biodistribution, Heart, Average.
Where [5] appears, read: both sexes, kidney, read-out: Biodistribution, Kidneys, Average.
Setting [6] is: both sexes, liver, read-out: Biodistribution, Liver, Average.
Where [7] appears, read: both sexes, lungs, read-out: Biodistribution, Lungs, Average.
Setting [8] is: both sexes, muscle, read-out: Biodistribution, Muscle, Average.
Where [9] appears, read: both sexes, skin, read-out: Biodistribution, Skin, Average.
The mark [10] stands for this setting: both sexes, spleen, read-out: Biodistribution, Spleen, Average.
Setting [11] is: both sexes, tumor, read-out: Biodistribution, Tumor, Average.
The mark [12] stands for this setting: male, testes, read-out: Biodistribution, Testes, Average.

Read-outs that look alike come from different tables or passages of the source. Where a SMILES comes first, the peptide text is derived from it. Bridges are numbered along the chain shown (N, C = ends). Triazole bridges read from a SMILES are 1,4-linked. Side-chain parts run from the residue outwards. [ ]: non-standard residue; d: D form. The star is where a group is joined. X1 = NC(=O)CN1CCN(CC(=O)O)CCN(CC(=O)*)CCN(CC(=O)O)CC1; Lys(N3) = [N-]=[N+]=NCCCC[C@H](N)C(=O)O; Nle = CCCC[C@H](N)C(=O)O; Pra = C#CC[C@H](N)C(=O)O; AEEA = NCCOCCOCC(=O)O

As to `CCCC[C@H](NC(C)=O)C(=O)N[C@H]1Cc2cn(nn2)CCCC[C@@H](C(=O)N[C@@H](CCCCNC(=O)COCCOCCNC(=O)CN2CCN(CC(=O)O)CCN(CC(N)=O)CCN(CC(=O)O)CC2)C(N)=O)NC(=O)[C@H](Cc2c[nH]c3ccccc23)NC(=O)[C@H](CCCNC(=N)N)NC(=O)[C@@H](Cc2ccccc2)NC(=O)[C@H](Cc2c[nH]cn2)NC1=O` [[^203Pb]VMT01, metal not drawn] (Ac-[Nle][Pra]H[dF]RW[Lys(N3)]K([AEEA-X1])-NH2; triazole 2-7), the tissue uptake at 0.5 h was determined as 1.1 %ID/g in series [1] (setting [2]); 0.06 %ID/g in series [1] (setting [3]); 0.66 %ID/g in series [1] (setting [4]); 12.8 %ID/g in series [1] (setting [5]); 0.64 %ID/g in series [1] (setting [6]); 2.8 %ID/g in series [1] (setting [7]). Further, the tissue uptake at 0.5 h in series [1] (setting [8]) turned out to be 0.73 %ID/g; in series [1] (setting [9]), 2.23 %ID/g; in series [1] (setting [10]), 0.58 %ID/g; in series [1] (setting [11]), 5.5 %ID/g; in series [1] (setting [12]) it was 3.23 %ID/g. Further, the tissue uptake at 1.5 h in series [1] (setting [2]) worked out at 0.08 %ID/g; in series [1] (setting [3]), 0.02 %ID/g; in series [1] (setting [4]), 0.08 %ID/g; in series [1] (setting [5]), 6.1 %ID/g; in series [1] (setting [6]), 0.43 %ID/g; in series [1] (setting [7]) it was 2.98 %ID/g. The tissue uptake at 1.5 h was found to be 0.09 %ID/g in series [1] (setting [8]); 0.27 %ID/g in series [1] (setting [9]); 0.17 %ID/g in series [1] (setting [10]); 8.9 %ID/g in series [1] (setting [11]); 0.1 %ID/g in series [1] (setting [12]). Further, the tissue uptake at 3 h amounted to 0.03 %ID/g in series [1] (setting [2]); 0.01 %ID/g in series [1] (setting [3]); 0.05 %ID/g in series [1] (setting [4]); 6 %ID/g in series [1] (setting [5]); 0.31 %ID/g in series [1] (setting [6]); 1.34 %ID/g in series [1] (setting [7]). Also, the tissue uptake at 3 h in series [1] (setting [8]) was 0.04 %ID/g; in series [1] (setting [9]), 0.15 %ID/g; in series [1] (setting [10]), 0.12 %ID/g; in series [1] (setting [11]), 4.5 %ID/g; in series [1] (setting [12]), 0.04 %ID/g. Also, the tissue uptake at 6 h in series [1] (setting [2]) stood at 0.02 %ID/g; in series [1] (setting [3]) it was 0.01 %ID/g; in series [1] (setting [4]), 0.03 %ID/g; in series [1] (setting [5]), 5.3 %ID/g; in series [1] (setting [6]), 0.37 %ID/g; in series [1] (setting [7]), 1 %ID/g. The tissue uptake at 6 h was determined as 0.03 %ID/g in series [1] (setting [8]); 0.17 %ID/g in series [1] (setting [9]); 0.11 %ID/g in series [1] (setting [10]); 3.8 %ID/g in series [1] (setting [11]); 0.04 %ID/g in series [1] (setting [12]). In addition, the tissue uptake at 24 h in series [1] (setting [2]) was 0.01 %ID/g; in series [1] (setting [3]), 0.01 %ID/g; in series [1] (setting [4]) it was 0.02 %ID/g; in series [1] (setting [5]) it was 2.6 %ID/g; in series [1] (setting [6]) it was 0.22 %ID/g; in series [1] (setting [7]), 0.2 %ID/g. The tissue uptake at 24 h in series [1] (setting [8]) worked out at 0.02 %ID/g; in series [1] (setting [9]), 0.09 %ID/g; in series [1] (setting [10]), 0.09 %ID/g; in series [1] (setting [11]), 1.7 %ID/g; in series [1] (setting [12]) it was 0.03 %ID/g.
For the compound nivolumab: anti-PD1, the complete response rate in the series with metastatic melanoma was 19%.
For the compound ipilimumab: anti-CTLA-4, the complete response rate with metastatic melanoma was 6%.
